Results on 2 compounds are retold here after patent US20250249102A1, “CMV-HIV SPECIFIC CHIMERIC ANTIGEN RECEPTOR T CELLS” (priority 2022, published 2025).

Assay [1] deals with HIV-1 BaL or HIV-1 NL4-3. As to conditions: for HIV replication: CD8+-depleted PBMCs infected with HIV-1 BaL or HIV-1 NL4-3.
The subject of assay [2] is HIV-1 BaL or HIV-1 NL4-3. The experiment in a line: microbe, parasite or virus in culture. As to conditions: Human immunodeficiency virus 1, PBMC.

Where two headings read alike, the source gives them in different places.

By EC50 is commonly meant the midpoint of the concentration-response curve. Read a low EC50 as higher potency in that assay. Take enfuvirtide: in the assay on HIV-1 BaL or HIV-1 NL4-3 [1], the EC50 is 27.9 nM and the HIV replication entry is “prevent HIV replication”.

For the compound `CC(C)CN(C[C@@H](O)[C@H](Cc1ccccc1)NC(=O)O[C@H]1CO[C@H]2OCC[C@H]21)S(=O)(=O)c1ccc(N)cc1` [darunavir], the HIV replication entry with HIV-1 BaL or HIV-1 NL4-3 [1] is on record as “prevent HIV replication”. The compound further had an EC50 with HIV-1 BaL or HIV-1 NL4-3 [2] of 4.3 nM.
